Results as given in PubChem BioAssay AID179 (DTP/NCI, 2004).
pEC50, pIC50: −log10 of the molar value. Active and inactive are the calls of the source.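 The calls were made as follows: active = compounds giving half or more protection of infected cells from virus-caused growth loss, again on retest; inactive = the rest.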 Where a SMILES comes first, the peptide text is derived from it. Bridges are numbered along the chain shown (N, C = ends). The star is where a group is joined. Boc = CC(C)(C)OC(=O)*; OBn = c1ccc(CO*)cc1

System: CEM cells HIV-1 protection, formazan growth assay
Test: NCI AIDS Antiviral Assay
Conditions: for pIC50: measured here: growth of uninfected CEM cells
Summary of the method: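 Protection of CEM cells against HIV-1 measured as cell growth via soluble formazan read-out, with five concentrations tested on both infected and uninfected cells; failure to protect may reflect toxicity.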

Structure (SMILES)	pEC50	pIC50	outcome
CCCCCCCCCCCCOC1C(COCCN2CCCCC2)OC2OC(C)(C)OC21 (stereo unspecified)	< 3.70	5.58	
C[N+]1([O-])C2CCC1CC(OC(=O)C(CO)c1ccccc1)C2 (stereo unspecified)	< 3.70	< 3.70	
CCC(C)C1NC(=O)C2CCCN2C(=O)C(Cc2ccc(O)cc2)NC(=O)C(CC(N)=O)NC(=O)C(CCC(N)=O)NC(=O)C(CO)NC(=O)C(C(C)C)NC(=O)C(N)CSSCC(C(=O)O)NC(=O)C(CCC(N)=O)NC(=O)C(C(C)C)NC1=O (stereo unspecified) (H-CVSQNYPIVQC-OH; disulfide 1-11; configuration not given here)	< 4.30	< 4.30	
COc1ccccc1C1=C2C(=O)N(C)C(c3ccccc3OC)=C2C(=O)N1C	< 4.00	< 4.00	
N#C/C(=C/c1cccc2ccccc12)C(=O)c1ccccc1	< 4.88	< 4.88	
CC(C)C(NC(=O)C(Cc1ccccc1)NC(=O)OC(C)(C)C)C(=O)NCC(=O)OCc1ccccc1 (stereo not drawn) (Boc-Phe-Val-Gly-OBn; configuration not given here)	< 3.70	4.97	
COc1cccc([B-]23OCC[N+]2(CNC(=O)C2=C(O)C4(O)C(=O)C5=C(O)c6c(O)cccc6C(C)(O)C5CC4C(N(C)C)C2=O)CCO3)c1 (stereo unspecified)	< 4.42	< 4.42	
CC(C)C1CC[C@H](C)C[C@@H]1OC(=O)C(C(=O)O[C@H]1C[C@@H](C)CCC1C(C)C)C(O)[C@@H]1OC(C)(C)O[C@H]1C1COC(C)(C)O1 (stereo partly specified)	< 3.70	5.13	
O=C(O[C@@H]1C(=O)N2CC[C@H]3OC(O)[C@@H]1[C@H]32)c1ccc([N+](=O)[O-])cc1 (stereo partly specified)	< 3.70	< 3.70	
O=C(O)CCSSCCCCS(=O)O	< 3.70	5.69	
CC1(CO)C(=O)OC12CCCCC2 (stereo unspecified)	< 2.87	< 2.87	
CN1CCC2(CC1)C(=NC1CCCCC1)NC(=S)N2c1ccccc1	< 4.00	< 4.00	
COc1ccc(N2C(=O)C3c4[nH]c5ccc(F)cc5c4C4CCC(c5ccccc5)CC4C3C2=O)cc1 (stereo unspecified)	< 3.70	4.44	
c1ccc2c(CC[n+]3cccc(C4OCCO4)c3)c[nH]c2c1	< 3.18	3.96	
C=C1C[C@H]2[C@@H]3C=C(C)C4=CC(=O)CC[C@]4(C)[C@H]3CC[C@]2(C)[C@@]1(OC(C)=O)C(C)=O	< 3.70	4.55	
CN(C)c1ccc(/C=C2\CCCCCC2=O)cc1	< 3.70	4.57	
CCCCN1C=CN2c3nc4cc(C)c(C)cc4n3C(C(=O)OC)=C(C(=O)OC)C12 (stereo unspecified)			inactive
CC(NC(=O)CNC(=O)C(N)CO)C(=O)NC(CCC(=O)O)C(=O)NC(CCCCN)C(=O)NC(C(=O)NC(CCC(N)=O)C(=O)NC(CCC(=O)O)C(=O)NC(CCC(N)=O)C(=O)NC(CCCN=C(N)N)C(=O)NC(C)C(=O)NC(CC(N)=O)C(=O)NC(C)C(=O)NC(Cc1cnc[nH]1)C(=O)NC(CO)C(=O)O)C(C)O (stereo unspecified) (H-SGAEKTQEQRANAHS-OH; configuration not given here)	< 4.00	< 4.00	
Cc1cn(C2CC(N=[N+]=[N-])C(COC(=O)CCCCCCCCCCCN=[N+]=[N-])O2)c(=O)[nH]c1=O (stereo unspecified)	7.43	3.74	
O=C1c2c(O)cccc2[C@H](O)[C@]23O[C@]12CC[C@]1(O)CCC[C@@H](O)[C@@H]13	< 4.70	6.01	
C[C@H]1C(=O)CC[C@]2(C)CCC(C(C)(C)O)CC12O (stereo partly specified)			inactive
O=C(C(=C(I)I)c1ccccc1)c1ccccc1	< 3.70	4.71	
COc1ccccc1NC(=O)C1=C(C)NC(C)=C(C(=O)Nc2ccccc2OC)C1c1cccc2ccccc12	< 5.01	< 5.01	
CCN(CC)C(=O)COc1cc2c(O)c3c(O)c(C)c4c(c13)C(=O)C(C)(O/C=C/C(OC)C(C)C(O)C(C)C(O)C(C)C(O)C(C)/C=C/C=C(\C)C(=O)N2)O4 (stereo unspecified)	< 3.70	4.53	
Cc1cc(C)nc(NS(=O)(=O)c2ccc(N=c3c4ccccc4n(-c4ccccc4)c4ccccc34)cc2)n1			inactive
O=C(Cn1c(C(=O)c2ccccc2)nc2ccccc21)c1ccccc1	< 3.70	5.13	
Nc1c2ccccc2nc2ccccc12	< 3.70	5.66	

Structure (SMILES)	pEC50	pIC50	outcome
Cn1cc(NC(=O)c2cc(NC(=O)CN=C(N)N)cn2C)cc1C(=O)NCCC(=N)N	< 3.70	< 3.70	
COC1(C)OC23C(=O)N(C)C(=O)N(C)C2(O1)N(C(C)=O)C(=O)N3C (stereo unspecified)	< 3.70	< 3.70	
NS(=O)(=O)c1ccc(N=Cc2ccccc2O)cc1	< 3.70	< 3.70	
Cn1c2ccccc2c2nnc(N/N=C/c3ccc([N+](=O)[O-])o3)nc21	< 3.70	< 3.70	
N#CCC(=O)N/N=C1\C(=O)N(c2ccc(Cl)cc2)C(=O)C(=O)C1c1nc2ccccc2o1 (stereo unspecified)			inactive
CCOC(=O)c1sc2nc(SC)nc3c2c1N=CN3c1ccc(Br)cc1			inactive
CC(=O)NC(=O)c1ccccc1O	< 3.14	3.41	
CC(=O)O[C@@H]1CC[C@]2(C)C3CC[C@]4(C)C(C(C)CCc5nc6ccccc6n5C(C)=O)CCC4C3[C@H](OC(C)=O)C[C@@H]2C1 (stereo partly specified)	< 4.30	5.50	
N=C(c1ccc(-c2cn3cc(C(=N)N4CCCC4)ccc3n2)cc1)N1CCCC1	3.83	< 3.70	
O=C1CC(C(=O)N2CCCCC2)n2c(=O)n(-c3ccccc3)c(=O)n2C1 (stereo unspecified)	< 3.70	< 3.70	
Cc1cc[c]([Sb](=[O])([OH])[c]2ccc(C)cc2)cc1	< 5.30	6.07	
S=C1CC(N2CCCC2)=Nc2ccccc2N1	< 3.70	< 3.70	
COc1cc2ccc3c(c2cc1OC)CCc1cnoc1-3	< 4.32	< 4.32	
N#Cc1nn(-c2ccc(Cl)cc2)c(N)c2c(=N)n3nc(-c4ccccc4)cc3nc12	< 5.04	< 5.04	
CC(CC(=O)N1C2CC3CCC2(CS1(=O)=O)C3(C)C)[Si](C)(C)C (stereo unspecified)	< 3.70	4.13	
N#CCCN(CCC#N)c1ccc(/C=C2\N=C(c3ccccc3)N(c3ccc(F)cc3)C2=O)cc1	< 3.70	< 3.70	
CC(=O)C(=Cc1ccc(C=C(C(C)=O)C(C)=O)cc1)C(C)=O	< 3.70	6.03	
CN1C(=O)/C(=N\n2c(-c3ccccc3)nc3ccccc3c2=O)c2ccccc21	< 3.70	< 3.70	
CC1(C)NNC(=S)NC1=O	< 2.80	< 2.80	
C#CC(O)/C=C/CCCCCCCCC/C=C/CCCCCCCCC/C=C/C(O)C#C (stereo unspecified)			inactive
CN(C)[C@@H]1C(=O)C(C(=O)NCN2CCN(C(=N)N=C(N)N)CC2)=C(O)[C@@]2(O)C(=O)C3=C(O)c4c(O)cccc4[C@@](C)(O)[C@H]3C[C@@H]12	< 4.43	6.59	
c1ccc(CCN(CCc2ccccn2)CCc2ccccn2)nc1	< 3.70	< 4.00	
Cc1nsnc1CCO	< 2.76	< 2.76	
N#Cc1c(-c2ccco2)c2c(n(C3OC(CO)C(O)C(O)C3O)c1=S)CCCC2 (stereo unspecified)	< 3.70	3.96	
COC(=O)C1(Cc2ccccc2)Cc2cc3c(cc2C1=O)CCC3 (stereo unspecified)	< 3.70	4.07	
NC(=O)c1cccc(NC=O)c1	< 2.82	2.89	
C/C(CC1SCCCS1)=C(/C)CC1SCCCS1	< 3.70	< 3.70	

Structure (SMILES)	pEC50	pIC50	outcome
Oc1cc2cccc[n+]2c2cc(Cl)ccc12	< 3.70	4.04	
CN(C)CCc1ccnc2nc(-c3ccc4ccccc4c3)cn12	< 3.70	4.49	
Cn1c(=O)n2n(c1=O)Cc1cccc3cccc(c13)C2	< 3.70	< 3.70	
Cn1c(O)c(N=NC(N)=S)c2ccccc21	< 3.70	3.73	inactive
O=C(O)CN1C=C(C(=O)c2cc3ccccc3n2S(=O)(=O)c2ccccc2)CCC1	< 3.70	4.05	
CCC[CH2][Sn]([Cl])([CH2]CCC)[S]C(=S)NCCNC(=S)[S][Sn]([Cl])([CH2]CCC)[CH2]CCC	< 5.70	6.99	
CC(C)(C)OC(=O)NCCC1SC2C=CC1C2 (stereo unspecified)	< 3.70	3.97	
CC(=O)O/N=C(/C)c1ccccc1O	< 4.57	< 4.57	
COc1cc([C@H]2CC(=O)C[C@@H](c3cc(OC)c(OC)c(OC)c3)C23C(=O)c2ccccc2C3=O)cc(OC)c1OC	< 3.70	< 3.70	
Cc1c(C(=N)N)oc2ccccc12			inactive
N[C@H](CCC(=O)NCP(=O)(O)O)C(=O)O	< 3.70	< 3.70	
Cc1cc(NC(=O)Nc2ccc(N=Nc3cc(S(=O)(=O)O)c4cccc(S(=O)(=O)O)c4c3)c(C)c2)ccc1N=Nc1cc(S(=O)(=O)O)c2cccc(S(=O)(=O)O)c2c1	4.70	< 4.00	
Clc1ccc(CNc2nc3ccccc3nc2-c2cccs2)c(Cl)c1	< 5.01	< 5.01	
CN1CCCC(C#N)(c2ccccc2)CC1 (stereo unspecified)			inactive
c1ccc(C2OC3(CCC[C@H]4C[C@H]43)O[C@H]2c2ccccc2)cc1 (stereo partly specified)			inactive
CC1(C)CCC[C@]2(C)c3occc3CCC12 (stereo partly specified)			inactive
CCCCNC(=O)Cn1c2ccc(Br)cc2c2nc3ccccc3nc21	< 4.00	< 4.00	
CN(C)c1c(C2CC(O)C(CO)O2)c(=O)c1=O (stereo unspecified)	< 3.70	< 3.70	
O=c1cc(O)c2c(ccc3ccccc32)[nH]1	< 3.70	< 3.70	
CCCC/C(=N\OC(=O)N(C)C)c1ccccc1	< 3.70	< 4.00	
COC(=O)C(=O)Nc1cc2c3c(c1)Oc1cccc4c1C3(C)c1c(cccc1O2)O4	4.55	3.90	
COC(=O)C1CC=CCCC1=O (stereo unspecified)	< 3.11	3.56	
COc1ccnc(C(=O)N2CCCC2C(=O)O)c1 (stereo unspecified)	< 3.70	< 3.70	
Cc1ccc([N+](=O)[O-])cc1NC(=O)C(=O)Cc1nc2ccc(C(=O)c3ccccc3)cc2[nH]c1=O	< 3.56	3.96	
COc1ccc(C2Oc3cc(OC)c(O)cc3[C@@H]2C)cc1 (stereo partly specified)	< 4.18	5.19	
Nc1nc(Cl)c(/C=N\O)c(NCC2(CO)CC(=O)C2)n1	< 3.70	4.77	
